#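 Method: 48-hour compound exposure of cells in 96-well plates, five concentrations, linear interpolation of endpoints. At the GI50, growth is halved. At the TGI there is no net growth.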
# Experiments:
# Assay in all cases: DTP human tumour cell line panel, 48 h
# HOP-62 NSCLC = system: HOP-62 NSCLC
# CAKI-1 renal = system: CAKI-1 renal
# MDA-MB-435 = system: MDA-MB-435
# OVCAR-8 ovarian = system: OVCAR-8 ovarian
# K-562 leukemia = system: K-562 leukemia
# T-47D breast = system: T-47D breast
# HL-60(TB) leukemia = system: HL-60(TB) leukemia
# NCI-H522 lung = system: NCI-H522 lung
# OVCAR-3 ovarian = system: OVCAR-3 ovarian
# ACHN renal = system: ACHN renal
# 786-0 renal = system: 786-0 renal
# HCC-2998 colon = system: HCC-2998 colon
# TK-10 renal = system: TK-10 renal
# A549 NSCLC = system: A549 NSCLC
# SK-MEL-5 melanoma = system: SK-MEL-5 melanoma
# HCT-15 colon = system: HCT-15 colon
# NCI-H460 lung = system: NCI-H460 lung
# UACC-257 melanoma = system: UACC-257 melanoma
# M14 melanoma = system: M14 melanoma
# RPMI-8226 leukemia = system: RPMI-8226 leukemia
# SK-MEL-2 melanoma = system: SK-MEL-2 melanoma
# UACC-62 melanoma = system: UACC-62 melanoma
# SNB-19 CNS = system: SNB-19 CNS
# MOLT-4 leukemia = system: MOLT-4 leukemia
# SF-295 CNS = system: SF-295 CNS
# DU-145 prostate = system: DU-145 prostate
# NCI-H226 lung = system: NCI-H226 lung
# MCF7 breast = system: MCF7 breast
# OVCAR-5 ovarian = system: OVCAR-5 ovarian
smiles,measurement,setting,value
CCC(=O)N1C/C(=C/c2ccc(Br)cc2)C(=O)/C(=C/c2ccc(Br)cc2)C1,GI50,HOP-62 NSCLC,259 nM
same,TGI,HOP-62 NSCLC,829 nM
same,GI50,CAKI-1 renal,1210 nM
same,GI50,MDA-MB-435,524 nM
same,TGI,MDA-MB-435,1460 nM
same,GI50,OVCAR-8 ovarian,499 nM
same,TGI,OVCAR-8 ovarian,2880 nM
same,GI50,K-562 leukemia,183 nM
same,TGI,K-562 leukemia,6100 nM
same,GI50,T-47D breast,673 nM
same,TGI,T-47D breast,2540 nM
same,GI50,HL-60(TB) leukemia,1860 nM
same,TGI,HL-60(TB) leukemia,5630 nM
same,GI50,NCI-H522 lung,1400 nM
same,TGI,NCI-H522 lung,2800 nM
same,GI50,OVCAR-3 ovarian,588 nM
same,TGI,OVCAR-3 ovarian,1560 nM
same,GI50,ACHN renal,694 nM
same,TGI,ACHN renal,1870 nM
same,GI50,786-0 renal,546 nM
same,TGI,786-0 renal,1200 nM
same,GI50,HCC-2998 colon,802 nM
same,TGI,HCC-2998 colon,2090 nM
same,GI50,TK-10 renal,357 nM
same,TGI,TK-10 renal,1280 nM
same,GI50,A549 NSCLC,745 nM
same,TGI,A549 NSCLC,10800 nM
same,GI50,SK-MEL-5 melanoma,996 nM
same,TGI,SK-MEL-5 melanoma,2450 nM
same,GI50,HCT-15 colon,295 nM
same,TGI,HCT-15 colon,1310 nM
same,GI50,NCI-H460 lung,827 nM
same,TGI,NCI-H460 lung,3070 nM
same,GI50,UACC-257 melanoma,1630 nM
same,TGI,UACC-257 melanoma,3470 nM
same,GI50,M14 melanoma,885 nM
same,TGI,M14 melanoma,2700 nM
same,GI50,RPMI-8226 leukemia,< 49.7 nM
same,GI50,SK-MEL-2 melanoma,1930 nM
same,TGI,SK-MEL-2 melanoma,4000 nM
same,GI50,UACC-62 melanoma,724 nM
same,TGI,UACC-62 melanoma,2060 nM
same,GI50,SNB-19 CNS,995 nM
same,TGI,SNB-19 CNS,2900 nM
same,GI50,MOLT-4 leukemia,1060 nM
same,TGI,MOLT-4 leukemia,5690 nM
same,GI50,SF-295 CNS,1600 nM
same,TGI,SF-295 CNS,4300 nM
same,GI50,DU-145 prostate,1020 nM
same,TGI,DU-145 prostate,3220 nM
same,GI50,NCI-H226 lung,1130 nM
same,TGI,NCI-H226 lung,4380 nM
same,GI50,MCF7 breast,271 nM
same,TGI,MCF7 breast,1560 nM
same,GI50,OVCAR-5 ovarian,1320 nM

# Reference: PubChem BioAssay (NCI)
